melting point | Compound
234.5 to 235.8 °C | CN(C(=O)c1ccc(C(F)(F)F)cc1F)c1ccc(Oc2ccc3cc(C(=O)N4CCN(Cc5ccc(OCC(F)(F)F)cc5)CC4)n(C)c3c2)nc1.Cl
195.4 °C | Cl.Cn1c(C(=O)N2CCN(Cc3ccc(OCC(F)(F)F)cc3)CC2)cc2ccc(Oc3ccc(NC(=O)c4ccc(C(F)(F)F)nc4)cn3)cc21
259 to 263.2 °C | Cl.Cn1c(C(=O)N2CCN(Cc3ccc(OCC(F)(F)F)cc3)CC2)cc2ccc(Oc3ccc(NC(=O)c4ccc(C(F)(F)F)c(F)c4)cn3)cc21
250.8 to 254.2 °C | Cl.Cn1c(C(=O)N2CCN(Cc3ccc(OCC(F)(F)F)cc3)CC2)cc2ccc(Oc3ncc(NC(=O)c4ccc(C(F)(F)F)cc4)cn3)cc21
251.4 to 253.5 °C | Cl.Cn1c(C(=O)N2CCN(Cc3ccc(OCC(F)F)cc3)CC2)cc2ccc(Oc3ncc(NC(=O)c4ccc(C(F)(F)F)cc4)cn3)cc21
249.8 to 251 °C | CC(C)Oc1ccc(CN2CCN(C(=O)c3cc4ccc(Oc5ncc(NC(=O)c6ccc(C(F)(F)F)cc6)cn5)cc4n3C)CC2)cc1.Cl
247.7 to 249.8 °C | Cl.Cn1c(C(=O)N2CCN(Cc3ccc(OC(F)F)cc3)CC2)cc2ccc(Oc3ncc(NC(=O)c4ccc(C(F)(F)F)cc4)cn3)cc21
207.8 to 209.3 °C | Cc1ccc(C(=O)N(C)c2ccc(Oc3ccc4cc(C(=O)N5CCN(Cc6ccc(OCC(F)F)cc6)CC5)n(C)c4c3)nc2)cc1.Cl
230.1 to 232 °C | Cc1ccc(C(=O)N(C)c2ccc(Oc3ccc4cc(C(=O)N5CCN(Cc6ccc(OC(C)C)cc6)CC5)n(C)c4c3)nc2)cc1.Cl
231.2 to 231.8 °C | CCCOc1ccc(CN2CCN(C(=O)c3cc4ccc(Oc5ccc(N(C)C(=O)c6ccc(C)cc6)cn5)cc4n3C)CC2)cc1.Cl
232.8 to 235.6 °C | CC(C)N(c1ccc(Oc2ccc3cc(C(=O)N4CCN(Cc5ccc(OCC(F)(F)F)cc5)CC4)n(C)c3c2)nc1)S(=O)(=O)c1ccc(Cl)c(Cl)c1.Cl
226.9 to 229 °C | CCCOc1ccc(CN2CCN(C(=O)c3cc4ccc(Oc5ccc(N(C)C(=O)c6ccc(OC(F)F)cc6)cn5)cc4n3C)CC2)cc1.Cl
229.7 to 230.4 °C | CC(C)Oc1ccc(CN2CCN(C(=O)c3cc4ccc(Oc5ccc(N(C)C(=O)c6ccc(OC(F)F)cc6)cn5)cc4n3C)CC2)cc1.Cl
252.7 to 253.6 °C | CN(c1ccc(Oc2ccc3cc(C(=O)N4CCN(Cc5ccc(OCC(F)(F)F)cc5)CC4)n(C)c3c2)nc1)S(C)(=O)=O.Cl
256.2 to 256.5 °C | Cl.Cn1c(C(=O)N2CCN(Cc3ccc(OC(F)F)cc3)CC2)cc2ccc(Oc3ccc(NC(=O)c4ccc(OC(F)(F)F)cc4)cn3)cc21
253.6 to 254.4 °C | CCCCS(=O)(=O)N(C)c1ccc(Oc2ccc3cc(C(=O)N4CCN(Cc5ccc(OCC(F)(F)F)cc5)CC4)n(C)c3c2)nc1.Cl
256.5 to 259.8 °C | CC(C)S(=O)(=O)N(C)c1ccc(Oc2ccc3cc(C(=O)N4CCN(Cc5ccc(OCC(F)(F)F)cc5)CC4)n(C)c3c2)nc1.Cl
243.4 to 244.4 °C | CN(c1ccc(Oc2ccc3cc(C(=O)N4CCN(Cc5ccc(OCC(F)(F)F)cc5)CC4)n(C)c3c2)nc1)S(=O)(=O)CC(F)(F)F.Cl
225.2 to 229.3 °C | CN(c1ccc(Oc2ccc3cc(C(=O)N4CCN(Cc5ccc(OCC(F)(F)F)cc5)CC4)[nH]c3c2)nc1)S(=O)(=O)c1ccc(Cl)c(Cl)c1.Cl
182.9 °C | Cc1cc(C(=O)Nc2ccc(Oc3ccc4cc(C(=O)N5CCN(Cc6ccc(OCC(F)(F)F)cc6)CC5)n(C)c4c3)nc2)ccc1Cl.Cl
253.1 to 254.5 °C | CC(C)CN1CCN(C(=O)c2cc3ccc(Oc4ccc(N(C)C(=O)c5ccc(C(F)(F)F)cc5)cn4)cc3n2C)CC1.Cl
270.2 to 272.2 °C | CC(C)CN1CCN(C(=O)c2cc3ccc(Oc4ccc(NC(=O)c5ccc(C(F)(F)F)cc5)cn4)cc3n2C)CC1.Cl
217.4 to 218.3 °C | Cc1cc(C(F)(F)F)ccc1C(=O)Nc1ccc(Oc2ccc3cc(C(=O)N4CCN(Cc5ccc(OCC(F)(F)F)cc5)CC4)n(C)c3c2)nc1.Cl
197.7 to 199.3 °C | Cc1cc(C(F)(F)F)ccc1C(=O)Nc1ccc(Oc2ccc3cc(C(=O)N4CCN(Cc5ccc(OC(C)C)cc5)CC4)n(C)c3c2)nc1.Cl

melting point | Compound
207.9 to 211.5 °C | Cc1cc(C(F)(F)F)ccc1C(=O)Nc1ccc(Oc2ccc3cc(C(=O)N4CCN(Cc5ccc6c(c5)OC(F)(F)O6)CC4)n(C)c3c2)nc1.Cl
204.9 to 205.7 °C | Cc1cc(C(F)(F)F)ccc1C(=O)Nc1ccc(Oc2ccc3cc(C(=O)N4CCN(Cc5ccc(OC(F)F)cc5)CC4)n(C)c3c2)nc1.Cl
228.7 to 230.4 °C | CN(C(=O)c1ccc(C(F)(F)F)cc1F)c1ccc(Oc2ccc3cc(C(=O)N4CCN(Cc5ccc(OC(F)F)cc5)CC4)n(C)c3c2)nc1.Cl
247.1 to 249.2 °C | CCCOc1ccc(CN2CCN(C(=O)c3cc4ccc(Oc5ccc(N(C)C(=O)c6ccc(C(F)(F)F)cc6F)cn5)cc4n3C)CC2)cc1.Cl
242 to 249 °C | Cc1ccc(S(=O)(=O)N(C)c2ccc(Oc3ccc4cc(C(=O)N5CCN(Cc6ccc7c(c6)OCO7)CC5)n(C)c4c3)nc2)cc1.Cl
239.1 to 239.8 °C | Cc1ccc(S(=O)(=O)N(C)c2ccc(Oc3ccc4c(c3)cc(C(=O)N3CCN(Cc5ccc(OCC(F)(F)F)cc5)CC3)n4C)nc2)cc1.Cl
264 to 266.3 °C | CCCOc1ccc(CN2CCN(C(=O)c3cc4ccc(Oc5ccc(NC(=O)c6ccc(C(F)(F)F)cc6F)cn5)cc4n3C)CC2)cc1.Cl
267.6 to 268.2 °C | CC(C)Oc1ccc(CN2CCN(C(=O)c3cc4ccc(Oc5ccc(NC(=O)c6ccc(C(F)(F)F)cc6F)cn5)cc4n3C)CC2)cc1.Cl
265.3 to 265.8 °C | Cl.Cn1c(C(=O)N2CCN(Cc3ccc(OC(F)F)cc3)CC2)cc2ccc(Oc3ccc(NC(=O)c4ccc(C(F)(F)F)cc4F)cn3)cc21
267.3 to 267.7 °C | Cl.Cn1c(C(=O)N2CCN(Cc3ccc(OC(CF)CF)cc3)CC2)cc2ccc(Oc3ccc(NC(=O)c4ccc(C(F)(F)F)cc4F)cn3)cc21
152 to 160 °C | CCN(C(=S)Nc1ccc(Cl)c(Cl)c1)c1ccc(Oc2ccc3c(c2)cc(C(=O)N2CCN(Cc4ccc5c(c4)OCO5)CC2)n3C)nc1.Cl
240 to 243 °C | CN(C(=O)Nc1ccc(Cl)c(Cl)c1)c1ccc(Oc2ccc3c(c2)cc(C(=O)N2CCN(Cc4ccc5c(c4)OCO5)CC2)n3C)nc1.Cl
256.9 to 257.7 °C | CN(c1ccc(Oc2ccc3cc(C(=O)N4CCN(Cc5ccc(OCC(F)(F)F)cc5)CC4)n(C)c3c2)nc1)S(=O)(=O)c1ccc(C(F)(F)F)cc1.Cl
246.4 to 247.2 °C | Cc1ccc(S(=O)(=O)N(C)c2ccc(Oc3ccc4cc(C(=O)N5CCN(Cc6ccc(OCC(F)(F)F)cc6)CC5)n(C)c4c3)nc2)cc1.Cl
226.9 to 227.2 °C | CCN(c1ccc(Oc2ccc3cc(C(=O)N4CCN(Cc5ccc(OCC(F)(F)F)cc5)CC4)n(C)c3c2)nc1)S(=O)(=O)c1ccc(Cl)c(Cl)c1.Cl
191.3 to 192.5 °C | Cc1cc(C)c(S(=O)(=O)Nc2ccc(Oc3ccc4cc(C(=O)N5CCN(Cc6ccc(OCC(F)(F)F)cc6)CC5)n(C)c4c3)nc2)c(C)c1.Cl
222 to 226 °C | Br.CN(C(=O)c1ccc(Cl)c(Cl)c1)c1ccc(Oc2ccc3c(c2)cc(C(=O)N2CCN(Cc4ccc5c(c4)OCO5)CC2)n3C)nc1 [Example 6, N-{6-[2-(4-Benzo[1,3]dioxol-5-ylmethylpiperazine-1-carbonyl)-1-methyl-1H-indol-5-yloxy]pyridin-3-yl}-3,4-dichloro-N-methyl-benzamide hydrobromide]
264 to 269 °C | Br.Cn1c(C(=O)N2CCN(Cc3ccc4c(c3)OCO4)CC2)cc2cc(Oc3ccc(NC(=O)c4ccc(Cl)c(Cl)c4)cn3)ccc21 [Example 7, N-{6-[2-(4-Benzo[1,3]dioxol-5-ylmethylpiperazine-1-carbonyl)-1-methyl-1H-indol-5-yloxy]pyridin-3-yl}-3,4-dichlorobenzamide hydrobromide]
240 to 244 °C | Br.Cn1c(C(=O)N2CCN(Cc3ccc4c(c3)OCO4)CC2)cc2cc(Oc3ccc(NC(=O)c4ccc(C(F)(F)F)cc4)cn3)ccc21 [Example 8, N-{6-[2-(4-Benzo[1,3]dioxol-5-ylmethylpiperazine-1-carbonyl)-1-methyl-1H-indol-5-yloxy]pyridin-3-yl}-4-trifluoromethylbenzamide hydrobromide]
258 to 261 °C (dec.) | Br.Cn1c(C(=O)N2CCN(Cc3ccc4c(c3)OCO4)CC2)cc2cc(Oc3ccc(NC(=O)c4ccc(C(F)(F)F)cc4C(F)(F)F)cn3)ccc21 [Example 9, N-{6-[2-(4-Benzo[1,3]dioxol-5-ylmethylpiperazine-1-carbonyl)-1-methyl-1H-indol-5-yloxy]pyridin-3-yl}-2,4-bistrifluoromethyl-benzamide hydrobromide]
227 to 232 °C (dec.) | Br.Cn1c(C(=O)N2CCN(Cc3ccc4c(c3)OCO4)CC2)cc2cc(Oc3ccc(NC(=O)c4ccc(-n5cccc5)cc4)cn3)ccc21 [Example 11, N-{6-[2-(4-Benzo[1,3]dioxol-5-ylmethylpiperazine-1-carbonyl)-1-methyl-1H-indol-5-yloxy]pyridin-3-yl}-4-pyrrol-1-ylbenzamide hydrobromide]
176 to 178 °C | Br.CN(C(=O)/C=C/c1cc(F)cc(F)c1)c1ccc(Oc2ccc3c(c2)cc(C(=O)N2CCN(Cc4ccc5c(c4)OCO5)CC2)n3C)nc1 [Example 12, (E)-N-{6-[2-(4-Benzo[1,3]dioxol-5-ylmethylpiperazine-1-carbonyl)-1-methyl-1H-indol-5-yloxy]pyridin-3-yl}-3-(3,5-difluorophenyl)-N-methylacrylamide hydrobromide]
249 to 251 °C | Br.COc1ccc(CN2CCN(C(=O)c3cc4cc(Oc5ccc(NC(=O)c6ccc(C(F)(F)F)cc6C)cn5)ccc4n3C)CC2)cc1 [Example 14, N-(6-{2-[4-(4-Methoxybenzyl)piperazine-1-carbonyl]-1-methyl-1H-indol-5-yloxy}pyridin-3-yl)-2-methyl-4-trifluoromethylbenzamide hydrobromide]
163 to 165 °C | COc1ccc(CN2CCN(C(=O)c3cc4cc(Oc5ccc(N(C)C(=O)c6ccc(C(F)(F)F)cc6Cl)cn5)ccc4n3C)CC2)cc1.O=C(O)C(=O)O [Example 16, 2-Chloro-N-(6-{2-[4-(4-methoxybenzyl)piperazine-1-carbonyl]-1-methyl-1H-indol-5-yloxy}pyridin-3-yl)-N-methyl-4-trifluoromethyl-benzamide oxalate]

— US8551999B2, “Heterocyclic compound and pharmaceutical composition thereof” (Otsuka Pharmaceutical Co., Ltd., priority 2007, dated 2013)
